Here are results for 8 molecules from publication PMC8171317, “Total synthesis, isolation, surfactant properties, and biological evaluation of ananatosides and related macrodilactone-containing rhamnolipids” (Chemical Science, 2021).

The nature of series [1]: Surface tension and CMC, Fisher tensiometer, du Noüy ring method. The series is classed as physicochemical. The arrangement: γ CMC (surface tension at CMC): unit not given here. The settings on record: pH 7.0; synthetic samples. The procedure: Biosurfactants are molecules that can associate with each other leading to the formation of micelles. They can also interact with surfaces between phases of different polarity such as the air/water or oil/water interface.[77] To gain quantitative insights into the surface-active properties of microbial glycolipids, the surface tensions at CMC (γCMC) of ananatoside A (1) and ananatoside B (2) were measured using a Fisher tensiometer by means of the du Noüy ring method. The CMC, referring to the concentration of surfactant at which micelles start to form, was determined from a plot of surface tension again each concentration. […] Consequently, the surface tension measurements were performed quickly to avoid the precipitation of ananatoside A (1) into the aqueous medium.

Series [2] can be described thus: Dynamic light scattering (Zetasizer), hydrodynamic diameter of micelles. The series is classed as physicochemical. The note with it: pH 7.0; concentration 80 μM. An excerpt:
In parallel to these experiments, we took advantage of dynamic light scattering (DLS) to evaluate the hydrodynamic diameter of biosurfactant micelles formed at concentrations above the CMC (Table 4).[79] DLS considers the intensity of light scattered by spherical particles, which prevents its application for highly polydisperse and non-spherical colloidal systems. […] Once again, due to its hydrophobicity, ananatoside A (1) was too polydisperse for conducting a proper distribution analysis, showing a Z-average value above 800 nm, which meant that the particles were aggregated in water at the tested concentration. Similar results were obtained for ananatoside A (1) when the DLS experiments were conducted in DMSO as the solvent.

A short description of series [3]: Emulsifying activity against hydrocarbon contaminants. The series is classed as physicochemical. The note with it: cyclohexane and kerosene. The protocol:
Therefore, the emulsifying properties of microbial biosurfactants 1–3 were evaluated against light as well as heavy hydrocarbon contaminants such as cyclohexane and kerosene, respectively (see Fig. S7 ^†).

Series [4] can be described thus: Cytotoxicity, resazurin assay. The series is classed as cell-based, human. The settings on record: human, max tested 200 μM. The procedure:
(§1) As the anticancer potential of microbial rhamnolipids has previously been reported,[16] we next sought to evaluate the in vitro cytotoxicity of our synthetic and natural glycolipids 1–6 against cancerous cell lines, i.e., human lung carcinoma (A549) and colorectal adenocarcinoma (DLD-1). The compounds were also tested against human normal skin fibroblasts (WS1) to estimate their selectivity towards cancer cells.
(§2) 4. Experimental Procedures for Biological Evaluation and Surfactant Properties. […]
(§3) Cell Culture. Human lung carcinoma (A549), human colorectal adenocarcinoma (DLD-1), and human normal skin fibroblasts (WS1) cell lines were obtained from the American Type Culture Collection (ATCC). All cell lines were cultured in minimum essential medium containing Earle’s […]
(§4) salts and L-glutamine (Mediatech Cellgro, VA), to which were added 10% foetal bovine serum (Hyclone), vitamins (1×), penicillin (100 IU•mL-1), streptomycin (100 µg•mL−1), essential amino acids (1×), and sodium pyruvate (1×) (Mediatech Cellgro, VA). Cells were kept at 37 °C in a humidified environment containing 5% CO2.
(§5) Cytotoxicity Assay. Exponentially growing A549, DLD-1 or WS1 cells were plated in 96-well microplates (Costar, Corning Inc.) at a density of 5 × 10^3 cells per well in 100 µL of culture medium and were allowed to adhere for 16 h prior treatment. Increasing concentrations of each compound in biotech DMSO (Sigma-Aldrich) were then added (100 µL per well) and the cells were incubated for 48 h. The final concentration of DMSO in the culture medium was maintained at 0.5% (v/v) to avoid solvent toxicity. Cytotoxicity was assessed using resazurin9 on an automated 96-well Fluoroskan Ascent F1TM plate reader (Labsystems) using excitation and emission wavelengths of 530 and 590 nm, respectively. Fluorescence was proportional to the cellular metabolic activity in each well. Survival percentage was defined as the fluorescence in experimental wells as compared to that in control wells after subtraction of blank values. Each experiment was carried out three times in triplicate. IC50 results were expressed as means ± standard deviation. […]

The nature of series [5]: Cytotoxicity, resazurin assay, summary over cell lines. The settings on record: human, DLD-1 and WS1 cells (summary over the three lines); A549, DLD-1 and WS1; read-out: Cytotoxicity IC50 against human cell lines. The series is classed as cell-based. The protocol:
as §1, §2, §3, §4, §5
(In general: Alamar Blue is a resazurin reagent that responds to reducing activity.)

The next series concerns sheep blood erythrocytes. Nature of the series: Hemolytic activity. The series is classed as cell-based. The protocol:
Owing to their surfactant properties, glycolipids can break the membrane of red blood cells causing hemolytic activity.[18] To understand if the cytotoxicity of macrolactones 1, 4, 5β, and 6β was due to their surface tension activity, we evaluated the hemolytic potential of synthetic glycolipids 1–6 against sheep erythrocytes (Table 5). […] The non-cytotoxic rhamnolipid 3 was also found to exert a weak hemolytic activity (HC50 = 65 ± 6 μM). […]
Hemolytic Activity. The hemolytic activity of the synthetic surfactants was evaluated as previously described with small modifications.10 Defibrinated sheep blood (Oxoid) was centri fuged at 1000 × g for 5 min. The pellet containing erythrocytes was washed once and suspended in 1X PBS to obtain a 1% erythrocytes suspension. All samples were suspended in DMSO/PBS (5:1 v/v) and serially diluted in a 96 -well plate to obtain a range of co ncentrations from 1 mM to 7.8 µM.
The erythrocytes suspension (160 µL) was added to 40 µL of samples to obtain final concentrations […]
ranging between 200 µM and 1.56 µM. Triton X-100 was used as a positive hemolysis control.
The plate was then incubated at 37 °C with agitation at 150 rpm for 1 h and centrifuged at 1500 × g for 5 min. The supernatant was transferred in an empty plate and absorbance was measured at 540 nm using a Cytation3 microplate reader (Biotek). HC50 was calculated in comparison with the positive control. The experiment was performed in triplicate and repeated three times. […]

A further series concerns tomato leaf disks. Briefly: Extracellular ROS production, luminol chemiluminescence. The series is classed as cell-based, Solanum lycopersicum. The note with it: 100 μM, monitored over 720 min. An excerpt:
Bacterial rhamnolipids, such as compound 3, trigger the plant immune system, which can ultimately lead to plant protection against diseases caused by fungal and bacterial pathogens.[23] As ananatoside A (1) and ananatoside B (2) share structural similarities with rhamnolipid 3 and because they have been isolated from P. ananatis cultures, an emerging plant pathogen causing important agricultural damage worldwide,[81] we wanted to investigate whether these bacterial glycolipids, along with our unprecedented series of synthetic rhamnolactones, could be perceived by the plant immune system. We relied on measuring the extracellular content of reactive oxygen species (ROS) produced by tomato plants (Solanum lycopersicum) following treatment with the synthetic compounds, as an early and important marker of plant immunity.[20,22,82] Tomato leaves were challenged with synthetic glycolipids 1–6 at concentrations of 100 μM and the production of ROS was monitored over a 720 min time frame (Fig. 5).
Fig. 5 Extracellular reactive oxygen species (ROS) production following treatment of tomato leaf disks with ananatoside A (1), ananatoside B (2), RhaC10C10 (3), and related macrodilactone-containing rhamnolipids (4–6). Production of ROS was measured in tomato leaf disks following treatment at 100 μM with synthetic glycolipids (1–6). MeOH (0.5%) was used as a control. ROS production was measured using the chemiluminescence of luminol and photon counts were expressed as relative luminescence units (RLUs). Data are mean ± SEM (n = 6). Experiments were independently realized three times with similar results. […]
Plant Material and Growth Conditions. Tomato plants (Solanum lycopersicum L var. Ailsa craig, Scotland) were grown on soil in growth chamber with white fluorescent light [200 μmol•(m−2 s−1)], under 16 h/8 h light/dark regime, 60% relative humidity , and a temperature of 24 /20 °C during four weeks prior treatment. Arabidopsis thaliana plants (ecotype Col -0) were grown on soil in growth chambers with white fluorescent light (150 μmol m−2 s−1), under 12 h/12 h light/dark regime, 60% relative humidity, and a temperature of 20/20 °C during six weeks prior treatment.
Reactive Oxygen Species (ROS) Production. ROS assays were performed on four-week old tomato plants or six-week old Arabidopsis plants. Briefly, tomato leaf disks of 6 mm diameter or Arabidopsis petiole sections of 5 mm long were cut and placed in a 96-well plate (Optiplate TM-96 white, PerkinElmer) containing 150 µL of distilled H2O and then incubated at rt for 24 h to reduce the wounding response.11 The elicitation solution containing 0.2 µg•mL−1 luminol (A4685-5 g, Sigma), […] (P6782, Sigma) and the tested glycolipids (1, 2, 3, 4, 5α, 5β, 6α or 6β) at 100 μM was prepared. Methanol (0.5%) was used as negative control. Prior elicitation, the incubating distilled H2O was carefully removed from each well, avoiding any tissue damage or desiccation. Then, the elicitation solution (150 µL) was quickly added to each well containing a leaf disk or a petiole. Luminescence (relative light units, RLU) was measured every 4

On the set-up of series [6]: method as in PMID 17105155. The settings on record: estimated; cited from earlier work.
Series [7] has as its system human colorectal adenocarcinoma (DLD-1). Briefly: Cytotoxicity, resazurin assay. The series is classed as cell-based. The note with it: 48 h, max tested 200 μM. The protocol:
as §1, §2, §3, §4, §5

Series [8] deals with human lung carcinoma (A549). Nature of the series: Cytotoxicity, resazurin assay. The series is classed as cell-based. The settings on record: 48 h, max tested 200 μM. The procedure:
as §1, §2, §3, §4, §5

Series [9] concerns human normal skin fibroblasts (WS1). Nature of the series: Cytotoxicity, resazurin assay. The series is classed as cell-based. The note with it: 48 h, max tested 200 μM. The protocol:
as §1, §2, §3, §4, §5

[10] abbreviates: DLD-1 colorectal adenocarcinoma cells.
The mark [11] stands for this setting: sheep blood erythrocytes, 1 h, 37 °C, max tested 200 μM.

Where two headings read alike, the source gives them in different places. Marks after values point to notes of the source that are not given here. Where only a bound is given, the exact number is not on record here.

For orientation: IC50 means the point on the concentration scale where inhibition reaches its midpoint. Usually pKa stands for the negative logarithm of the acid dissociation constant. On to `CCCCCCC[C@H](CC(=O)O)OC(=O)C[C@@H](CCCCCCC)O[C@@H]1O[C@@H](C)[C@H](O)[C@@H](O)[C@H]1O` [Compound 3, RhaC10C10], for which, in series [1], the “CMC (critical micelle concentration)” value was 58 ± 1 µM. For the same molecule, in series [1], the “γ CMC (surface tension at CMC)” value is reported as 30 ± 1. Further, the “Z-Average (hydrodynamic diameter of micelles)” value in series [2] was determined as 92.1 nm. Also, the Emulsifying activity result in [3] was “equally able to generate emulsions with cyclohexane and kerosene”. The IC50 at 48 h in series [4] (A549 lung carcinoma cells), in [4] (setting [10]), in [4] (WS1 normal skin fibroblasts) and in series [5] was over 200 µM throughout. For the same molecule, the “Hemolysis (HC50 in μM) Erythrocytes” value with sheep blood erythrocytes (setting [11]) was 65 ± 6 µM. In addition, the “Extracellular ROS production” value in the series on tomato leaf disks is “triggered a long-lasting and strong production of ROS”. The pKa in [6] was 5.5.

Regarding `CCCCCCCC1CC(=O)OC2C(C)OC(OC(CCCCCCC)CC(=O)O1)C(O)C2O` (stereo not shown) [Compound 4], the half-maximal inhibitory concentration (IC50) at 48 h in series [4] (A549 lung carcinoma cells) was 56 ± 2 µM; in series [4] (setting [10]), 70 ± 10 µM; in series [4] (WS1 normal skin fibroblasts) it was 57 ± 1 µM; in series [5], 50 to 112 µM. In addition, the “Hemolysis (HC50 in μM) Erythrocytes” value in the series on sheep blood erythrocytes (setting [11]) amounted to 12.0 ± 0.7 µM.

Regarding `CCCCCCCC1CC(=O)OC2C(OC(CCCCCCC)CC(=O)O1)OC(C)C(O)C2O` (stereo not drawn) [Compound 5α], the IC50 at 48 h in series [4] (A549 lung carcinoma cells), in [4] (setting [10]) and in series [4] (WS1 normal skin fibroblasts) was over 200 µM each time. In addition, in the series on sheep blood erythrocytes (setting [11]), the “Hemolysis (HC50 in μM) Erythrocytes” value was >200 ^d μM. The “Extracellular ROS production” value in the series on tomato leaf disks is recorded as “did not show a similar sensing pattern”.

For `CCCCCCCC1CC(=O)OC2C(OC(CCCCCCC)CC(=O)O1)OC(C)C(O)C2O` (stereo not drawn) [Compound 5β], the IC50 in series [7] turned out to be 110 ± 2 µM; in series [8], 103 ± 7 µM; in series [9], 105 ± 5 µM. For the same molecule, in series [5], the IC50 at 48 h is 50 to 112 µM. In addition, the “Hemolysis (HC50 in μM) Erythrocytes” value with sheep blood erythrocytes (setting [11]) amounted to 14 ± 2 µM. Further, in the series with tomato leaf disks, the “Extracellular ROS production” value is “induced a strong and long-lasting production of ROS following the initial burst at 200 min”.

For the molecule `CCCCCCCC1CC(=O)OC2C(O)C(C)OC(OC(CCCCCCC)CC(=O)O1)C2O` (stereo not drawn) [Compound 6α], the 50% inhibitory concentration (IC50) in [7], in series [8] and in series [9] was over 200 µM throughout. In the series with sheep blood erythrocytes (setting [11]), the “Hemolysis (HC50 in μM) Erythrocytes” value is given as >200 ^d μM.

As for `CCCCCCCC1CC(=O)OC2C(O)C(C)OC(OC(CCCCCCC)CC(=O)O1)C2O` (stereo not drawn) [Compound 6β], the IC50 at 48 h in [4] (A549 lung carcinoma cells) was 112 ± 2 µM; in series [4] (setting [10]), 112 ± 3 µM; in series [4] (WS1 normal skin fibroblasts), 110 ± 1 µM; in [5] it was 50 to 112 µM. For the same molecule, the “Hemolysis (HC50 in μM) Erythrocytes” value with sheep blood erythrocytes (setting [11]) came out at 12.3 ± 0.5 µM.

For the molecule `COc1cc([C@@H]2c3cc4c(cc3[C@@H](O[C@@H]3O[C@@H]5CO[C@@H](C)O[C@H]5[C@H](O)[C@H]3O)[C@H]3COC(=O)[C@H]23)OCO4)cc(OC)c1O` [Etoposide, reference compound], the results for the IC50 at 48 h in series [4] (A549 lung carcinoma cells), in series [4] (setting [10]) and in series [4] (WS1 normal skin fibroblasts) were 1.2 µM, 27 µM and 34 µM, respectively.

Take Triton X-100 [reference compound]: in the series on sheep blood erythrocytes, the “Hemolysis (HC50 in μM) Erythrocytes” value is reported as “c Half maximal inhibitory concentration measured on sheep blood erythrocytes. Triton X-100 was used as a positive control showing an HC50 value of 52 ± 2 μM”.
